Test results as given in patent US20250011798A1, “[…] PRODUCTION” (ModernaTX, Inc., priority 2021, published 2025).

Legend:
[1] = tested on: tolC mutant strain (tolC::amber, Strain 4); assay: Toxin sensitivity of the tolC::amber mutant strain; assay type: cell-based, E. coli; settings: low concentrations; irrespective of the growth media
From the text: The TAG amber mutation was introduced into the tolC ORF a plasmid DNA production strain, Strain 4 (FIG. 2). TolC is the major outer membrane efflux pump component of E. coli. It is not an essential gene, but it is necessary for the efflux of many toxins, and a tolC knockout is lethal at elevated levels. The tolC mutant strain generated by the tolC::amber mutation was therefore hypersensitive to many toxins, such as low concentrations of nalidixic acid, irrespective of the growth media. While a tolC mutant has hypersensitivity to toxins, it can be cultured normally in rich media such as LB or Terrific Broth, which allows for the generation of competent cells that may be used for DNA synthesis in production.

[2] = tested on: E. coli strains tolC::K3_amber (K3) and tolC::H342_amber (H342); assay: Growth of transformed tolC::amber E. coli strains over 24 hours in media containing kanamycin or deoxycholate; assay type: cell-based; settings: K3 and H342 strains with control luciferase plasmid, TBAF++ media containing deoxycholate (DOC 150), 37° C., FIGS. 3C-3D
Method: It was evaluated whether plasmid-borne expression of a mutant tRNA with an anticodon that is complementary to the tolC amber mutation would allow for expression of full-length TolC protein, and therefore allow the strain to grow in the presence of an otherwise lethal concentration of nalidixic acid (FIG. 2). In this case, a histidine tRNA, hisR, was modified with an anticodon loop that is complementary to the tolC amber STOP codon, UAG on RNA, which is encoded by TAG on DNA. Mutant E. coli strains were generated by introducing either a tolC::K3_amber (referred to as “K3”) or tolC::H342_amber (referred to as “H342”) amber mutation into the genome (FIG. 3A). Introduction of a STOP codon at an early codon of the open reading frame prevents the translation of non-functional TolC peptides with intact leader sequences, which would otherwise be translocated across the inner cell membrane into the periplasmic space or outer membrane. Each strain also contained codon-optimized tolC coding sequences. Both strains were transformed with a plasmid encoding either i) an amber suppressor tRNA that carries histidine (hisR), or ii) luciferase, as a control plasmid. Both plasmids carried a kanamycin-resistance marker to allow for plasmid maintenance during growth. […]

| Compound | Sensitivity of the tolC mutant strain to the toxin [1] | Effect on growth of strains not expressing the HisR tRNA [2] |
| --- | --- | --- |
| CCn1cc(C(=O)O)c(=O)c2ccc(C)nc21 [nalidixic acid] | hypersensitive |  |
| deoxycholate [DOC 150] |  | lethal |
